Consider nine compounds from PubChem BioAssay (NCI).

Test systems include SN12C renal; HOP-62 NSCLC; K-562 leukemia; SNB-75 CNS; HL-60(TB) leukemia; IGROV1 ovarian; SF-268 CNS; OVCAR-3 ovarian; ACHN renal; MALME-3M melanoma.
Common to all, as to assay: NCI anticancer screen, dose series, 48 h

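Interpolation was linear, between the two tested concentrations surrounding the appropriate level; five concentrations were tested over 48 hours in 96-well plates. GI50: concentration for 50% inhibition of growth. TGI: concentration producing complete growth inhibition.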

In the case of `CCC(C)CNC1=C(NC(C)=O)C(=O)c2ccccc2C1=O` (stereo not given), the TGI in the test on SN12C renal, with HOP-62 NSCLC, in the test with K-562 leukemia, with SNB-75 CNS, with HL-60(TB) leukemia and with IGROV1 ovarian was over 100 µM each time. Further, the TGI in the test with SF-268 CNS, in the test on OVCAR-3 ovarian, with ACHN renal and with MALME-3M melanoma was over 100 µM each time.

For the compound `CC(C)=CCNc1ncnc2c1ncn2C1OC(COP(=O)(O)O)C(O)C1O` (stereo not given), the GI50 with SN12C renal is 3.94 µM; in the test on HOP-62 NSCLC, 23.5 µM; with K-562 leukemia, 4.22 µM; with SNB-75 CNS, 2.06 µM; in the test on HL-60(TB) leukemia it was 1.94 µM; in the test with IGROV1 ovarian, 11 µM. Also, the GI50 was 8.77 µM in the test with SF-268 CNS, 2.13 µM with OVCAR-3 ovarian, 3.08 µM in the test with ACHN renal and 73.8 µM in the test on MALME-3M melanoma. The TGI is over 100 µM with SN12C renal; over 100 µM in the test on HOP-62 NSCLC; over 100 µM with K-562 leukemia; 34.1 µM with SNB-75 CNS; 6.33 µM in the test on HL-60(TB) leukemia; over 100 µM with IGROV1 ovarian. Besides, the TGI in the test on SF-268 CNS was over 100 µM; with OVCAR-3 ovarian it was 4.41 µM; in the test on ACHN renal, over 100 µM; in the test with MALME-3M melanoma, over 100 µM.

In the case of `COC1=C(C(=O)OC(C)(C)C)C23CCCCC2(C(C(=O)OC(C)(C)C)=C(OC)C3C(=O)OC(C)(C)C)C1C(=O)OC(C)(C)C` (stereo not given), the TGI was over 100 µM in the test on SN12C renal; over 100 µM with HOP-62 NSCLC; over 100 µM in the test with K-562 leukemia; over 100 µM with SNB-75 CNS; 63.1 µM in the test with HL-60(TB) leukemia; over 100 µM in the test with IGROV1 ovarian. The TGI in the test on SF-268 CNS, with OVCAR-3 ovarian, with ACHN renal and with MALME-3M melanoma was over 100 µM throughout.

As to `COc1cc(Oc2cnc3cc(N)cc(N)c3n2)cc(OC)c1OC`, the GI50 in the test on SN12C renal was 71.2 µM; with HOP-62 NSCLC, 48.1 µM; with K-562 leukemia it was 38.1 µM; with SNB-75 CNS, 19.2 µM; with HL-60(TB) leukemia, 21.9 µM; with IGROV1 ovarian, 32.8 µM. Moreover, the GI50 was 67.3 µM with SF-268 CNS, 26.8 µM in the test on OVCAR-3 ovarian, 24.3 µM in the test on ACHN renal and 59.9 µM in the test on MALME-3M melanoma. Also, the TGI in the test on SN12C renal is over 100 µM; with HOP-62 NSCLC, over 100 µM; in the test with K-562 leukemia, over 100 µM; with SNB-75 CNS it was 72.4 µM; in the test on HL-60(TB) leukemia, 45 µM; in the test on IGROV1 ovarian it was over 100 µM. The TGI in the test on SF-268 CNS is over 100 µM; in the test with OVCAR-3 ovarian, over 100 µM; in the test with ACHN renal, 63.4 µM; in the test with MALME-3M melanoma, over 100 µM.

Consider `COc1ccc(-n2cc(-c3ccc(Cl)cc3)[nH]c2=S)cc1Cl`, for which the GI50 with SN12C renal is 39.1 µM; in the test with HOP-62 NSCLC it was 32.4 µM; with K-562 leukemia it was over 100 µM; with SNB-75 CNS it was 21.6 µM; in the test on HL-60(TB) leukemia it was over 100 µM; in the test with IGROV1 ovarian, 30.2 µM. Besides, the GI50 with SF-268 CNS was 28 µM; in the test on OVCAR-3 ovarian, 31.8 µM; with ACHN renal, 33.1 µM; with MALME-3M melanoma, over 100 µM. Besides, the TGI in the test with SN12C renal was over 100 µM; with HOP-62 NSCLC, 92.2 µM; in the test with K-562 leukemia, over 100 µM; with SNB-75 CNS it was 46.7 µM; in the test on HL-60(TB) leukemia it was over 100 µM; in the test with IGROV1 ovarian, over 100 µM. Also, the TGI is 76.5 µM in the test on SF-268 CNS, over 100 µM with OVCAR-3 ovarian, over 100 µM in the test with ACHN renal and over 100 µM in the test on MALME-3M melanoma.

For `COc1ccc(C2CC(c3cccc(Nc4ccnc5cc(Cl)ccc45)c3)=NN2c2ccccc2)cc1` (stereo not given), the GI50 in the test on SN12C renal is 7.19 µM; in the test with HOP-62 NSCLC it was 0.949 µM; in the test with K-562 leukemia, 0.492 µM; in the test on SNB-75 CNS, 3.34 µM; with HL-60(TB) leukemia, 0.282 µM; in the test on IGROV1 ovarian it was 11.6 µM. The GI50 in the test with SF-268 CNS was 4.19 µM; in the test on OVCAR-3 ovarian it was 3.2 µM; in the test on ACHN renal it was 3.5 µM; in the test on MALME-3M melanoma, 10.7 µM. In addition, the TGI was over 100 µM in the test on SN12C renal; 21.3 µM in the test with HOP-62 NSCLC; 32.3 µM with K-562 leukemia; 49.1 µM in the test with SNB-75 CNS; 17.5 µM in the test with HL-60(TB) leukemia; over 100 µM with IGROV1 ovarian. For the same compound, the TGI in the test with SF-268 CNS is over 100 µM; in the test on OVCAR-3 ovarian it was over 100 µM; in the test with ACHN renal, 33.2 µM; with MALME-3M melanoma, 42.7 µM.

Turning to `COC(=O)CC[C@@H](NC(=O)C(C)NC(=O)COC1C(O)C(COC(=O)CCCCCCCCCCNC(=O)c2ccc([N+](=O)[O-])c3[nH]c4cc(Br)ccc4c(=O)c23)OC(OCc2ccccc2)C1NC(C)=O)C(N)=O` (stereo not given in full), the TGI was over 100 µM in the test with SN12C renal; over 100 µM in the test with HOP-62 NSCLC; over 100 µM in the test with K-562 leukemia; over 100 µM with SNB-75 CNS; 51.4 µM with HL-60(TB) leukemia; 49.8 µM in the test on IGROV1 ovarian. For the same compound, the TGI in the test on SF-268 CNS, with OVCAR-3 ovarian, in the test with ACHN renal and in the test with MALME-3M melanoma was over 100 µM throughout.

For `O=C(O)/C=C/C(=O)Nc1cccc2c1-c1ccccc1C2=O`, the TGI is over 100 µM with SN12C renal; over 100 µM in the test on HOP-62 NSCLC; over 64.1 µM in the test on K-562 leukemia; over 58.4 µM with SNB-75 CNS; 6.9 µM in the test with HL-60(TB) leukemia; over 100 µM in the test on IGROV1 ovarian. In addition, the TGI in the test with SF-268 CNS is over 100 µM; with OVCAR-3 ovarian, 5.78 µM; with ACHN renal, over 100 µM; in the test with MALME-3M melanoma, over 100 µM.

Regarding `O=C(O)C(=O)/C=C\c1ccc(Cl)cc1`, the TGI in the test with SN12C renal, in the test on HOP-62 NSCLC, with K-562 leukemia, with SNB-75 CNS, in the test with HL-60(TB) leukemia and with IGROV1 ovarian was over 100 µM throughout. Moreover, the TGI in the test on SF-268 CNS, in the test with OVCAR-3 ovarian, in the test with ACHN renal and in the test with MALME-3M melanoma was over 100 µM in each case.
